Assay results from patent US8383609B2, “Phosphorus containing heterocyclic compounds, sugar analogues, and compositions having anti-cancer activity containing the same” (Centre National de la Recherche Scientifique, priority 2007, dated 2013).
Where two headings read alike, the source gives them in different places.

Legend:
[1] = tested on: C6 Cells from glioblastomas of rats; experiment: Cytotoxicity on the C6 cell line (quantitative neutral red assay)
Protocol: c) C6 Cells from glioblastomas of rats. […] These cells were cultured in MEM (Minimum Essential Medium), in the presence of 5% of foetal calf serum. Incubation was conducted at 37° C. in a 5% CO2 humidity atmosphere.
The cells were seeded in 96-well plates with 2000 cells per well in 200 μL of MEM/HANKS (70/30) in the presence of 5% of foetal calf serum. The compounds were added 24 hours after seeding. […] The concentration range used did vary from 50 μM to 24 nM by conducting ½ to ½ serial dilutions.
(§1) The activity evaluation of the test compounds was effected by measuring the cell viability in the culture wells, by means of a so called “neutral red assay” that did consist in contacting the cells with this dye, the accumulation of which in cell acidic compartments does express the health status of the latter. The neutral red test makes it thus possible to know the cytotoxic effect of a compound. The dye was used from a 0.33% stock solution in PBS. 20 μL of such solution were added to each culture well containing 300 μL of culture medium and the plates were incubated at 37° C. for three hours.
(§2) The supernatant of each well was then removed by succion. […] The wells were evacuated again, and the cells were lyzed, thus salting out the dye in the well, this procedure being effected with a solution made of ethanol, water and acetic acid (50/49/1). The colour intensity obtained directly indicated the cell viability. It was quantified by measuring the absorbance at 570 nm. This measure was effected on a 96-well plate reader, of BIO-RAD Microplate reader 550 type, providing an optical density value (OD) for each well of culture.
(§3) Thereafter IC50 values were therefore determined by establishing the OD well X/OD control ratio, thus directly providing the percentage of living cells in the medium.
The quantitative evaluation of the cytotoxicity of the compounds of the invention against modified cells that are said to be “cancerous” was conducted on the C6 cell line. Plates were seeded at a cell density of 2000 cells per well. This density enabled to obtain a 80% confluence after a 4 day-culture for non treated cells.

[2] = tested on: astrocyte primary cultures from the cortex of a newborn rat; experiment: Cytotoxicity on the non modified astrocytes, so called healthy cells (quantitative assay); conditions: second day after addition, 50 μM to 24 nM
Protocol: (§4) b) Astrocyte primary cultures from the cortex of a newborn rat for testing the so called “healthy cells”. This primary culture was conducted based on the brain tissue removed from the cortex of a newborn rat. After homogeneization, trypsinization and centrifugation, cells were distributed in 24-well plates for about 3 weeks. Oligodendrocytes were then removed by stirring the culture plates for 30 minutes and by changing the supernatant with fresh medium.
as §1, §2, §3
(§5) Cytotoxicity evaluation assays against the so called “healthy cells” were conducted on astrocyte primary cultures collected from the cortex of newborn rats, mimetizing the physiology of a so called “healthy cell”, i.e. a non cancerous cell.
(§6) These cells being unmodified, their division time was very long (about 50 hours). It was thus necessary to choose a higher initial seeding concentration (5000 cells per well). The compounds (1) were introduced only after 96 hours so as to allow the cells to adhere to the well walls and to divide once or twice. The concentration range for the test compounds (1) varied from 50 μM to 24 nm as for the C6 cells. Controls were carried out the second day following the introduction of the compounds (1). Two plates were made available for each measurement.

[3] = tested on: spontaneously converted astrocytes collected from the cortex of a newborn rat; experiment: Cytotoxicity on the spontaneously converted astrocytes (qualitative assay, microscopic observation); format: cell-based; conditions: microscopic observation each day for four days, 50 μM to 400 nM
Source text: a) Spontaneously converted astrocytes collected from the cortex of a newborn rat (see Bochelen D., Langley K., Adamczyk M., Kupfberg, Hor F., Vincendon G., Mersel M., J. Neurosci. Res., 2000, 62, 99-111), that is to say from normal glial cells maintained in culture and that became able to divide to infinity. These cells are not able to induce tumors after implantation in the rat but did avoid the cell cycle regulation. This cell line was maintained in culture in culture flasks in the presence of 5 mL of culture medium MH5 comprising 70% of MEM and 30% of a Hanks solution. This medium was supplemented with 5% of foetal calf serum. The culture medium was changed every three days. Cells were incubated at 37° C. in an air/CO2 atmosphere (95/5). For the experiments, a replanting was effected after removal of the culture medium, cells were treated for 4 to 5 minutes with trypsine (0.1%). The cell suspension was then placed in 5 mL of fresh medium, 50 μL of this solution were collected to perform the cell counting. […]
These assays conducted on compounds 3.28, 3.8, 3.5. […] The effect was evaluated by simple microscopic observation of the culture plates. […] The evaluated compounds did present an activity at a very low concentration. An activity could be observed after 72 h to 96 h (days 3 and 4) for the whole evaluated compounds.

[4] = tested on: astrocyte primary cultures from the cortex of a newborn rat
Protocol: as §4, §1, §2, §3, §5, §6

[5] = C6 cell line, high concentration

| Compound | IC50 ([1]; Rattus norvegicus, C6, 48 h) | cytotoxicity on healthy cells (cell viability) [2] | other results |
| --- | --- | --- | --- |
| 6-(1,2-dihydroxy-ethyl)-2,2-dimethyl-2-oxo-2-diethoxymethyl-tetrahydro-6λ*5*-[1,3]dioxolo[4,5-d][1,2]oxaphosphinan-3-tosyl [Compound 3.6] |  |  | IC50 ([1]; C6 cell line, neutral red cell viability, measures conducted on day 2 or 3): 1500 nM |
| O=[N+]([O-])c1ccc([P@]2(=O)O[C@H](COCc3ccccc3)[C@@H](OCc3ccccc3)[C@H](OCc3ccccc3)C2O)cc1 (single isomer, unassigned) [Compound 3.52, 4,5-bis-benzyloxy-6-benzyloxymethyl-2-(p-nitro)phenyl-2-oxo-2λ^5-[1,2]oxaphosphinan-3-ol] | 100 to 5000 nM | absence of cytotoxicity |  |
| CC1(C)O[C@H]2[C@@H]([C@H]3COC(C)(C)O3)O[P@@](=O)(c3ccccc3)[C@@H](Oc3ccc([N+](=O)[O-])cc3)[C@H]2O1 [Compound 3.9a, 4-(2,2-Dimethyl-[1,3]dioxolan-4-yl)-2,2-dimethyl-2-oxo-2-phenyl-tetrahydro-6λ*5*-[1,3]dioxolo[4,5-d][1,2]oxaphosphinan-3-oxy-p-nitrophenyl] | 400 to 1000 nM |  |  |
| CCOC(OCC)P1(=O)O[C@H]([C@H]2COC(C)(C)O2)[C@@H]2OC(C)(C)O[C@@H]2C1O (some centres unmarked) [Compound 3.19a, 4-(2,2-Dimethyl-[1,3]dioxolan-4-yl)-2,2-dimethyl-2-oxo-2-diethoxymethyl-tetrahydro-6λ*5*-[1,3]dioxolo[4,5-d][1,2]oxaphosphinan-3-ol] |  |  | cytotoxic activity on spontaneously converted astrocytes [3]: cytotoxic activity |
| CC1(C)O[C@H]2[C@@H]([C@H]3COC(C)(C)O3)O[P@@](=O)(c3ccccc3)[C@@H](NCc3ccccc3)[C@H]2O1 [Compound 3.28, 4-(2,2-Dimethyl-[1,3]dioxolan-4-yl)-2,2-dimethyl-2-oxo-2-phenyl-tetrahydro-6λ*5*-[1,3]dioxolo[4,5-d][1,2]oxaphosphinan-3-aminobenzyl] | 800 to 5000 nM | absence of cytotoxicity | cytotoxic activity on spontaneously converted astrocytes [3]: cytotoxic activity |
| Cc1ccc(N[C@H]2[C@H]3OC(C)(C)O[C@H]3[C@@H]([C@H]3COC(C)(C)O3)O[P@@]2(=O)c2ccccc2)cc1 [Compound 3.30a, 4-(2,2-Dimethyl-[1,3]dioxolan-4-yl)-2,2-dimethyl-2-oxo-2-phenyl-tetrahydro-6λ*5*-[1,3]dioxolo[4,5-d][1,2]oxaphosphinan-3-aminotoluyl] | 500 to 5000 nM | did not show any significative effect | mortality of C6 cells when highly concentrated [1, 5]: total mortality |
| Cc1ccc(N[C@H]2[C@H]3OC(C)(C)O[C@H]3[C@@H]([C@H]3COC(C)(C)O3)O[P@@]2(=O)c2ccccc2)cc1 [Compound 3.30b, 4-(2,2-Dimethyl-[1,3]dioxolan-4-yl)-2,2-dimethyl-2-oxo-2-phenyl-tetrahydro-6λ*5*-[1,3]dioxolo[4,5-d][1,2]oxaphosphinan-3-aminotoluyl] |  | absence of cytotoxicity |  |
| O=[P@@]1(c2ccccc2)O[C@H](COCc2ccccc2)[C@@H](OCc2ccccc2)[C@H](OCc2ccccc2)C1O (some centres unmarked) [Compound 3.48a, 4,5-bis-benzyloxy-6-benzyloxymethyl-2-phenyl-2-oxo-2λ^5-[1,2]oxaphosphinan-3-ol] | 1000 to 2000 nM |  |  |
| COc1ccc([P@]2(=O)O[C@H](COCc3ccccc3)[C@@H](OCc3ccccc3)[C@H](OCc3ccccc3)C2O)cc1 (some centres unmarked) [Compound 3.51a, 4,5-bis-benzyloxy-6-benzyloxymethyl-2-(p-methoxy)phenyl-2-oxo-2λ^5-[1,2]oxaphosphinan-3-ol] | 100 to 5000 nM | did not show any significative effect | mortality of C6 cells when highly concentrated [1, 5]: total mortality |
| CC1(C)O[C@H]2[C@@H]([C@H]3COC(C)(C)O3)O[P@@](=O)(c3ccccc3)[C@@H](OC(=N)C(Cl)(Cl)Cl)[C@H]2O1 [Compound 3.57, 4-(2,2-Dimethyl-[1,3]dioxolan-4-yl)-2,2-dimethyl-2-oxo-2-phenyl-tetrahydro-6λ*5*-[1,3]dioxolo[4,5-d][1,2]oxaphosphinan-3-imidate] | 100 to 5000 nM |  | cytotoxicity on healthy cells (cell viability) [4]: did not show any significative effect; cell death of healthy cells ([4]; rat): ≤ 20%; mortality of C6 cells when highly concentrated [1]: total mortality |
